# How the values were obtained:
# rat primary astrocytes = assay: Cell viability (CCK-8) in NMO-IgG induced astrocyte injury model; assay type: cell-based
# [1] = test system: mouse CCL5 secretion by BV-2 cell line; assay: CCL5 secretion by LPS/IFN-γ-activated BV-2 cells (ELISA); assay type: cell-based
# Protocol: Step 1: BV-2 cells in the exponential growth phase were collected, and viable cells were counted using a Vi-Cell XR cell counter. The cell suspension was adjusted to an appropriate concentration with the culture medium. 160 μL of cell suspension was added to each well of a 96-well cell culture plate, resulting in a final cell concentration of 12,000 cells per well. The culture plate was incubated for 24 hours in a 37° C., 5% CO2 incubator.
# Step 2: A 10 mM DMSO compound stock solution was diluted at a ratio of 1:4 using DMSO to prepare a series of 1000× test compound solutions. These 1000× test compound solutions were further diluted at a ratio of 1:100 using cell culture medium to prepare a series of 10× test compound solutions. Finally, the 96-well plate that had been plated with cells the day before was taken out. According to the experimental well plate loading design, 20 μL of the corresponding 10× solution was added to each well, with three duplicate wells for each drug concentration. The final concentrations of the test compounds used in the experiment (i.e., 1× solutions) have a range of 10, 2.5, 0.625, 0.156, 0.0391, 0.0098, and 0.0024 μM. The final DMSO concentration in each well was 0.1%.
# After the compound was added, the 96-well plate was incubated for half an hour in the 37° C., 5% CO2 incubator.
# After the pre-incubation was completed, 20 μL of culture medium containing 100 ng/mL LPS and 100 ng/mL IFN-γ (final concentrations of 10 ng/mL LPS and 10 ng/mL IFN-7) was added to each well to induce the activation of BV-2 cells. The culture plate was then incubated for 24 hours in the 37° C., 5% CO2 incubator. […]
# Step 5 (NO and CCL5 detection): The CCL5 levels in the supernatant were detected using an ELISA kit (Mouse CCL5/RANTES DuoSet ELISA; R&D; DY478-05), following the instructions provided with the kit. The nitric oxide (NO) levels in the supernatant were detected using the Griess Reagent System (Promega; G2930), following the instructions provided with the kit.
# Step 1: Firstly, the optical density values obtained from ELISA and Griess tests were used to plot a standard curve and calculate the absolute concentrations of each sample. The absolute concentration was then calibrated using the CTG fluorescence value corresponding to each sample to obtain the calibrated concentration. The formula for calculating the calibrated concentration was: calibrated concentration=absolute concentration/CTG fluorescence value of the same sample.
# Step 2: Based on the calibrated concentration of each sample, the relative percentage of CCL5 or NO secretion (i.e., CCL5 production (%) or NO production (%)) at each test concentration relative to the blank (DMSO) group was calculated. […]
# [2] = Rattus norvegicus, Astrocyte, 24 h, read-out: Cell viability percentage, Mean
structure (smiles),measurement,setting,value
CN(c1ncnc2[nH]ccc12)[C@@H]1CCc2cc(C#N)nn2C1 [Compound I],inhibitory effect on cell viability,"rat primary astrocytes; 24 h co-incubation, highest test concentration 20 μM",no inhibitory effect on cell viability
same,viability at 0.027 µM,rat primary astrocytes; [2],112%
same,viability at 0.247 µM,rat primary astrocytes; [2],105%
same,viability at 2.222 µM,rat primary astrocytes; [2],99.7%
same,viability at 20 µM,rat primary astrocytes; [2],99.4%
same,Maximum inhibition rate on CCL5 secretion by BV-2,"[1]; 24 h co-incubation, up to 10 μM",80.29%
same,IC50,"[1]; Mus musculus, BV-2, 24 h co-incubation",863 nM

# Source: US20240238299A1, “USE OF PYRROLOPYRIMIDINE COMPOUND” (GUANGZHOU JOYO PHARMATECH CO., LTD, priority 2021, published 2024)
